Reference: patent US20130123326A1, “ALLOSTERIC BINDING COMPOUNDS” (REGION MIDTJYLLAND, priority 2009, published 2013)
Where two headings read alike, the source gives them in different places.

Experiments:
[1] = tested on: Balb/cJ male mice; assay: Forced swim test (FST); assay type: in vivo; settings: intraperitoneally 30 min prior to FST, seven minutes scoring period
Description: FIGS. 5A and 5B. Effect of allosteric compound in the mouse forced swim test (FST). Drugs were dissolved in 10% β-2-hydroxy-cyclodextrine. Male BalB/c were injected intraperitoneally with 500 μl SSRI alone or in combination with allosteric compound 30 min prior to FST (n=8). Vehicle treated animals each received 500 μl 10% 13-2-hydroxy-cyclodextrine. […] FIG. 5B depicts the effect of 5 mg/(kg bodyweight) of escitalopram alone and in combination with 15 mg/(kg bodyweight) of the allosteric compound of Example 1 (denoted ALN10 in figure). […]
FST is a behavioral model widely used to assess antidepressant-like activity in mice Porsholt et al, 1978). […] The total duration of immobility within a seven minute test period, is the main parameter measured. […]
Male BalB/c were injected intraperitoneally with 500 μl SSRI alone or in combination with allosteric compound 30 min prior to the swimming session (n=6). […] Swim sessions were videofilmed and analyzed by a blind scorer using stop watch, or by analyzing software (Ethovision, Noldus). The parameter measured was amount of time spent in a state of immobility, including small movements to keep balance and head over water. […]
FIGS. 5A and 5B gives the results from the forced swim test for the compound of Example 1. […] The dose of SSRI was chosen to be the highest sub-active concentration determined. […]

[2] = biological target: hSERT (Homo sapiens, UniProt P31645); assay: Dissociation assay with [3H]-citalopram and hSERT membrane preparations; assay type: binding; settings: for Max. Stability (maximum stabilization factor): estimated upper plateau of sigmoidal response curve: how many folds the off-rate of bound radioligand from SERT can be attenuated, N/A = No activity
Description: Dulbecco's modified Eagle's medium, fetal bovine serum, trypsin, and penicillin/streptomycin were purchased from Invitrogen. Cell culture flasks were from NUNC. MicroScint-20 scintillation mixture was from Packard. [^3H]-Citalopram (85 Ci/mmol) was a gift from H. Lundbeck A/S (Valby, Denmark). Fugene-6 transfection reagent was from Roche Molecular Biochemicals. All chemicals are commercially available. Stock solutions of the allosteric ligands were prepared as 100 mM in EtOH.
The pcDNA3 plasmid vector containing the hSERT gene was used for transfection.
17.5 μl Fugene-6 (Roche Molecular Biochemicals) were mixed with 280 μl Dulbecco's modified Eagle's medium, and incubated at room temperature for 5 minutes. 10 μg of hSERT plasmid were added and the mixture was further incubated at least 15 minutes. […] The cells were plated at 35% confluency in a 150 mm dish, and grown at 37° C. for 64 h. Prior to harvesting the dish was rinsed in PBS. Cells were harvested with a cell scraper in buffer 1 (50 mM Tris-base, 150 mM NaCl, 20 mM EDTA, pH 7.4). After centrifugation (3000 g at 4° C. for 10 mins), cells were suspended and homogenized with an IKA Ultra-Turrax from Rose Scientific Ltd (Edmonton, Alberta, Canada) for 20 s in buffer 1. Membranes were pelleted by ultracentrifugation (12 000 g at 4° C. for 15 min) and homogenization was repeated in buffer 1. Finally, after ultracentrifugation (12000 g, 4° C., 15 min) membranes were resuspended in 1 ml buffer 3 (50 mM Tris-base, 120 mM NaCl, 5 mM KCl, pH 7.4) and stored at −80° C.
Dissociation Assay with [^3H]-Citalopram and Membrane Preparations.
SERT-[^3H]-citalopram complex was formed by incubating hSERT membrane preparation and radioligand in buffer 3 during a 60 min incubation at 4° C. Radioligand was present at a concentration 10 times the Kd value. The time kinetic of dissociation was followed by adding 10 μL complex solution to 250 μL buffer 3 in 96-well plates and incubating subsequently for increasing time intervals at RT. Reactions were terminated by filtration through GF/C glass-fibre filters (Unifilter, Perkin Elmer Life Sciences), preincubated with 40 μl 0.5% polyethyleneimine, using a Pachard Bell cell harvester, and subsequently washed three times with water. Filters were soaked in 40 μl Microscint 20 scintillation liquid (Pachard Bell). Bound radioactivity was determined by direct counting of plates using a Packard Bell microplate scintillation counter. Dissociation curves were obtained by plotting residual binding vs. time of dissociation.
The concentrations of allosteric compound in the dissociation buffer range from 400-0.2 μM.
The relative off-rate is expressed as the off-rate of the radioligand at a given concentration of allosteric compound, normalized to the off-rate of radioligand in the absence of allosteric compound.
The maximum stabilization factor is defined as the estimated upper plateau of the sigmoidal response curve, and describes how many folds the off-rate of bound radioligand from SERT can be attenuated in the presence of increasing concentrations of allosteric compound in the dissociation buffer.

[3] = concentration of allosteric compound inducing 50% attenuation of the off-rate of the radioligand from SERT, 10 μM fluoxetine in dissociation buffer, read-out: EC50

Sequence of hSERT (P31645 whole entry): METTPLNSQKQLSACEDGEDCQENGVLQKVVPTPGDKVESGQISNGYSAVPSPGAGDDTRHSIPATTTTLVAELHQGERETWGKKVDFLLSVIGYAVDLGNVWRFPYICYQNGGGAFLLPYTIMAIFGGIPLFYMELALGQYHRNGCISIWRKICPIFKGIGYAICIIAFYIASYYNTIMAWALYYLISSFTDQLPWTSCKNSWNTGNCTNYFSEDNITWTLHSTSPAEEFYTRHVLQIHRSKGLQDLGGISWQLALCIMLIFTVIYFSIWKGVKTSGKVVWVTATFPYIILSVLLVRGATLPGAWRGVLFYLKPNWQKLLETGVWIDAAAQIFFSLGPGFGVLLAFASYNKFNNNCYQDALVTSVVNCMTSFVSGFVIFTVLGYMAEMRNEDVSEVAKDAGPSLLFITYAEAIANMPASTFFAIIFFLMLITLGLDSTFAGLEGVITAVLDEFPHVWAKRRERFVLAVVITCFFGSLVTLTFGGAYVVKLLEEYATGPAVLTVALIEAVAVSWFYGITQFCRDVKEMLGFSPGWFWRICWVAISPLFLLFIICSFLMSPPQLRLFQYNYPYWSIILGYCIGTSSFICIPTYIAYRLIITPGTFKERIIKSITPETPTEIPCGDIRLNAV

| EC50 [2, 3] [µM] | Max. Stability (maximum stabilization factor) [2] | SMILES | immobility time in FST, combination with escitalopram ([1]; 15 mg/kg allosteric compound + 5 mg/kg (subactive) escitalopram) | immobility time in FST, combination with fluoxetine ([1]; 15 mg/kg allosteric compound + 5 mg/kg (subactive) fluoxetine) | EC50 [2] [µM] |
| --- | --- | --- | --- | --- | --- |
| 3.3 | 9.1 | CCOC(=O)c1cccc2ccccc12 [Example 1, 1-Naphthoic Acid Ethyl Ester] | significantly reduced immobility time | significantly reduced immobility time | – |
| 29 | 7.4 | COC(=O)c1cccc2ccccc12 [Example 2, 1-Naphthoic Acid Methyl Ester] | – | – | – |
| 2.1 | 17 | CCCOC(=O)c1cccc2ccccc12 [Example 3, 1-Naphthoic Acid Propyl Ester] | – | – | – |
| 9.8 | 16 | CC(C)OC(=O)c1cccc2ccccc12 [Example 4, 1-Naphthoic Acid Isopropyl Ester] | – | – | – |
| 14.5 | 20 | O=C(OCCO)c1cccc2ccccc12 [Example 6, 1-Naphthoic Acid 2-Hydroxyethyl Ester] | – | – | – |
| 16 | 11 | C=CCOC(=O)c1cccc2ccccc12 [Example 8, 1-Naphthoic Acid 2-Propenyl Ester] | – | – | – |
| 15 | 13 | C#CCOC(=O)c1cccc2ccccc12 [Example 9, 1-Naphthoic Acid 2-Propynyl Ester] | – | – | – |
| 74 | 1.8 | CCNC(=O)c1cccc2ccccc12 [Example 10, 1-Naphthoic Acid Ethylamide] | – | – | – |
| 4.7 | 6.4 | CCCSc1cccc2ccccc12 [Example 11, 1-Propyl-Sulfanyl-1-Naphthalene] | – | – | – |
| 17 | 10 | CSc1cccc2ccccc12 [Example 12, Methyl-[1]Naphthyl Sulphide] | – | – | – |
| 9.4 | 8.3 | CCSc1cccc2ccccc12 [Example 13, Ethyl-[1]Naphthyl Sulphide] | – | – | – |
| 12 | 3.6 | CCCCSc1cccc2ccccc12 [Example 14, 1-Butyl-Sulfanyl-1-Naphthalene] | – | – | – |
| 4.6 | 10.2 | OCCSc1cccc2ccccc12 [Example 15, 2-Hydroxyethyl-1-Naphthyl Sulphide] | – | – | – |
| 1.2 | 10.3 | C#CCSc1cccc2ccccc12 [Example 16, 3-Ethynyl-Sulfanyl-1-Naphthalene] | – | – | – |
| 3.2 | 6.3 | C=CCSc1cccc2ccccc12 [Example 17] | – | – | – |
| 46 | 3.9 | CCCOc1cccc2ccccc12 [Example 21, 1-Propoxy-Naphthalene] | – | – | – |
| 1.3 | 9 | CCOC(=O)n1ccc2ccccc21 [Example 24, Indole-1-Carboxylic Acid Ethyl Ester] | – | – | – |
| 34 | 15 | CCOC(=O)n1ccc2ccc(C)cc21 [Example 27, 6-Methyl-Indole-1-Carboxylic Acid Ethyl Ester] | – | – | – |
| 31 | 8.8 | CCOC(=O)n1ccc2ccc(Cl)cc21 [Example 28, 6-Chloro-Indole-1-Carboxylic Acid Ethyl Ester] | – | – | – |
| 61 | 5.4 | CCOC(=O)n1nnc2ccccc21 [Example 29, Benzotriazole-1-Carboxylic Acid Ethyl Ester] | – | – | – |
| 9.6 | 10 | O=C(OC1CCCC1)c1cccc2ccccc12 [Example 32, 1-Naphthoic Acid Cyclopentyl Ester] | – | – | – |
| 5 | 6 | CCOC(=O)n1cc(C)c2ccccc21 [Example 35, 3-Methyl-Indole-1-Carboxylic Acid Ethyl Ester] | – | – | – |
| > 1000 | – | Sc1cccc2ccccc12 [reference compound] | – | – | – |

| SMILES | EC50 [2, 3] [µM] | Max. Stability (maximum stabilization factor) [2] | immobility time in FST, combination with escitalopram ([1]; 15 mg/kg allosteric compound + 5 mg/kg (subactive) escitalopram) | immobility time in FST, combination with fluoxetine ([1]; 15 mg/kg allosteric compound + 5 mg/kg (subactive) fluoxetine) | EC50 [2] [µM] |
| --- | --- | --- | --- | --- | --- |
| CCOS(=O)(=O)c1cccc2ccccc12 [reference compound] | – | 3.1 | – | – | 120 |
